# Measurements taken from patent US20100324123A1, “GLMS RIBOSWITCHES, STRUCTURE-BASED COMPOUND DESIGN WITH GLMS RIBOSWITCHES, AND METHODS AND COMPOSITIONS FOR USE OF AND WITH GLMS RIBOSWITCHES” (Yale University, priority 2006, published 2010).
# Entries after “also recorded” stand apart in the source; their conditions may differ.
# How the values were obtained:
# glmS ribozyme [1] = experiment: activity by electrophoretic in-line probing (gel electrophoresis methods); assay type: binding
# glmS ribozyme [2] = experiment: high-throughput fluorescence screen with bimolecular glmS ribozyme (fluorescein/cy3-labeled substrate); assay type: biochemical, S. aureus; details: for Fl21 h/Flg h: high-throughput fluorescence screen, fluorescence ratio
# [3] = target: homologous ribozyme from Bacillus subtilis; details: Bacillus subtilis glmS ribozyme; read-out: apparent dissociation constant (KD); cited from earlier work
# [4] = target: glmS ribozyme from B. cereus; details: read-out: apparent dissociation constant (KD); cited from earlier work
# [5] = tested on: glmS ribozyme from B. cereus; experiment: glmS ribozyme self-cleavage assay (5'-32P-labeled 200-nucleotide construct, PAGE); assay type: biochemical, Bacillus cereus; details: for ribozyme activation / self-cleavage (in words): FIG. 2b: 1 mM effector, 30 minutes, FIG. 2c: 100 μM, 50 mM HEPES pH 7.5; for ribozyme self-cleavage activity as fraction of the activity exhibited by GlcN6P: FIG. 2c, each at 100 μM
# Method: Differences from GlcN6P can be seen by comparing the structures to GlcN6P. b) Yields of ribozyme cleavage assays using a 200-nucleotide glmS RNA construct incubated with GlcN6P (1) or with various compounds as indicated. 5′ ^32P-labeled precursor (Pre) RNAs were incubated for 30 minutes in the presence of 1 mM effector as noted for each lane. […] Rate constants for the remaining compounds are estimated to be less than 0.001 min^−1.
# The molecular recognition characteristics of the glmS ribozyme was found by determining the effects of GlcN6P and various GlcN6P analogs on the self-cleavage activity of a 200-nucleotide glmS ribozyme construct from B. cereus (FIG. 1). KD values for each ligand were determined by plotting ribozyme rate constants versus ligand concentrations (Experimental Section). […] The amine group of the ligand is also known to be essential for ribozyme function (Winkler 2004; McCarthy 2005). […] Therefore, a series of analogs were tested (FIG. 2) to probe the importance of structural conformation of GlcN6P and of individual functional groups on the pyranose ring.
# The glmS ribozyme from B. cereus (FIG. 1a) was generated by in vitro transcription as described previously, (Roth 2006) 5′-^32P-radiolabeled, (Lim 2006) and purified by PAGE. Rate constants were established using methods and reaction conditions similar to those described previously (Roth 2006) with the exception that reaction mixtures contained 50 mM HEPES buffer (pH 7.5 at 23° C.) in place of Tris-HCl buffer. Ligand concentrations and incubation times used are defined for each assay. Ribozyme activity was established by quantitating the amounts of cleaved and uncleaved RNAs using a Typhoon imager (Amersham Biosciences).
# glmS ribozymes = details: cited from earlier work
Compound,Activity by electrophoretic in-line probing (glmS ribozyme [1]),Fl21 h/Flg h (glmS ribozyme [2]),ribozyme activation / self-cleavage (in words) [5],further results
"CC(=O)N[C@H]1C(O)O[C@H](COP(=O)(O)O)[C@@H](O)[C@@H]1O (stereo partly drawn) [AcNGln 6P, N-acetyl-D-glucosamine 6-phosphate]",Weakly,2.28,–,–
"N[C@H]1C(O)O[C@H](COP(=O)(O)O)[C@@H](O)[C@@H]1O (stereo partly shown) [Compound 1, glucosamine-6-phosphate, reference compound]",Yes,3.36,–,"Kd [3]: ~200 µM; Kd [4]: ~200 µM; increase of fluorescence intensity of fluoroscein (glmS ribozyme [2]; ~160 μM glucosamine-6-phosphate, minimum of 10 hours incubation): ~4 fold"
"N[C@@H](C=O)[C@@H](O)[C@@H](O)[C@H](O)COP(=O)(O)O [Compound 2, 2-amino-2-deoxy-D-galactose 6-phosphate]",–,1.69,does not induce activity,–
"N[C@@H](CO)[C@@H](O)[C@H](O)[C@H](O)COP(=O)(O)O [Compound 3, 2-amino-2-deoxy-D-glucitol-6-phosphate]",No,0.80,no detectable activity,–
"NC1C(O)O[C@H](COP(=O)(O)S)C(O)[C@@H]1O (stereo partly drawn) [Compound 4, 2-amino-2-deoxy-D-glucose 6-thiophosphate]",No,1.11,–,reduction of the rate constant of ribozyme cleavage compared to 1 [5]: approximately two orders of magnitude
"CO[C@@H]1O[C@H](COP(=O)(O)O)[C@@H](O)[C@H](O)[C@H]1N [Compound 5, methyl 2-amino-2-deoxy-β-D-glucose 6-phosphate]",No,1.02,precludes analog binding,–
"CO[C@H]1O[C@H](COP(=O)(O)O)[C@@H](O)[C@H](O)[C@H]1N [Compound 6, methyl 2-amino-2-deoxy-α-D-glucose 6-phosphate]",No,1.07,precludes analog binding,–
"NC1O[C@H](COP(=O)(O)O)[C@@H](O)[C@H](O)[C@H]1O (stereo partly shown) [Compound 7, 1-amino-1-deoxyglucose 6-phosphate]",No,1.00,does not support ribozyme cleavage; also recorded: lowest amount of cleavage,–
"N[C@H]1CO[C@H](COP(=O)(O)O)[C@@H](O)[C@@H]1O [Compound 8, 2-amino-1,5-anhydro-2-deoxyglucitol 6-phosphate]",Yes,2.52,–,ribozyme self-cleavage activity as fraction of the activity exhibited by GlcN6P [5]: 1/70; melting point: 185 to 187 °C (dec.)
"CNC1C(O)O[C@H](COP(=O)(O)O)C(O)[C@@H]1O (stereo partly shown) [Compound 9, 2-methylamino-2-deoxyglucose 6-phosphate]",Yes,3.49,only a modest reduction in efficiency compared to GlcN6P,melting point: 185 to 187 °C (dec.)
"N[C@H](C=O)[C@@H](O)[C@H](O)[C@H](O)COP(=O)(O)O [Compound 12, 2-amino-2-deoxy-D-mannose 6-phosphate]",Yes,2.89,–,ribozyme self-cleavage activity as fraction of the activity exhibited by GlcN6P [5]: 1/35
"NC1C(O)O[C@H](COP(=O)(O)O)C(O)[C@H]1O (stereo partly shown) [Compound 13, 2-amino-2-deoxyallose 6-phosphate]",–,–,activity that is similar to GlcN6P,–
"N[C@@H]1[C@@H](O)[C@H](O)[C@@H](COP(=O)(O)O)O[C@@H]1O [Gln6P com, reference compound]",Yes,2.24,–,–
"Cl.N[C@H]1C(O)O[C@H](CO)[C@@H](O)[C@@H]1O (stereo partly drawn) [Gln com, D-(+)-glucosamine hydrochloride, reference compound]",Yes,1.87,–,GlcN6P bound by the ribozyme more tightly than glucosamine (glmS ribozymes): > 1000 fold; loss of ligand affinity (in words) (glmS ribozymes; removal of the phosphate group): an even greater loss of ligand affinity
"C[N+](C)(C)C1C(O)O[C@H](COP(=O)(O)O)C(O)[C@@H]1O (stereo partly shown) [Me3N-Gln 6P, 2-(trimethylammonio)-2-deoxyglucose 6-phosphate]",–,–,–,melting point: 185 to 187 °C (dec.)
"C[N+](C)(C)[C@@H](C=O)[C@@H](O)[C@H](O)[C@H](O)CO [Me3N-Gln, 2-deoxy-2-(trimethylammonio)-D-glucose]",No,1.17,–,–
NCCO [ethanolamine],–,–,–,ribozyme activation (in words) (glmS ribozymes): orders of magnitude less effective than GlcN6P
N[C@H]1C(O)O[C@H](COS(=O)(=O)O)[C@@H](O)[C@@H]1O (stereo partly shown) [glucosamine-6-sulphate],–,–,–,"concentration needed to induce ribozyme activation to the same extent as GlcN6P, relative to GlcN6P (glmS ribozymes): ~100 fold"
O=C[C@H](O)[C@@H](O)[C@H](O)[C@H](O)COP(=O)(O)O [glucose-6-phosphate],–,–,–,ribozyme activation (in words) (glmS ribozymes): completely fails to trigger ribozyme action
NC(CO)CO [serinol],–,–,–,ribozyme activation (in words) (glmS ribozymes): orders of magnitude less effective than GlcN6P
